Data: PMC10609081, “In Vivo Trafficking of the Anticancer Drug Tris(8-Quinolinolato) Gallium (III) (KP46) by Gallium-68/67 PET/SPECT Imaging” (Molecules, 2023)
Where two headings read alike, the source gives them in different places.

Tests used:
[1] = set-up: method as in PMID 16938349, PMID 21305117; details: bulk drug, spectrophotometric; cited from earlier work
[2] = ICP-MS analysis of 69Ga in tissues after oral bulk dose; assay type: in vivo, mice; details: bulk (group D), 4 h
Experimental: Oral [^68/67Ga]KP46: The protocol for oral administration experiments reported here was devised on the basis of pilot experiments described in Supplementary Materials (Figure S12). For short-term (up to 4 h) studies with ^68Ga, awake (nonanaesthetised, to avoid suppressive effects of anaesthesia on digestive tract activity) mice that had been fasted for up to 14 h were given [^68Ga]KP46 (5–13 MBq) (group C, “tracer”, n = 3) or [^68Ga]KP46 and KP46 (5–8.5 MBq) (group D, “bulk”, n = 3) by oral gavage. The dose given orally to group D animals, prepared as described above, was 0.4 μmol in 400 μL, molar activity ca. 25 MBq/μmol. […] After separation of layers, a sample of 400 µL from each layer was transferred to fresh Eppendorf tubes and analysed with a gamma counter. Stomach content (72–77 mg), small intestine content (35–88 mg), and large intestine content (86–100 mg) samples from each mouse were analysed similarly by adding them directly to Eppendorf tubes containing a pre-equilibrated mixture of octanol (500 µL) and water (500 µL) before vortexing and centrifuging at 10,000 rpm for 10 min at 4 °C. From each layer, 430 µL was transferred to fresh Eppendorf tubes and analysed with a gamma counter; the solid residues were also counted. […]
expressed as mean ± SD (n = 3). […]

[3] = Distribution/partition coefficients (logD, logP), shake flask with gamma counting; assay type: physicochemical; details: octanol/water, tracer level, mean ± SD
Experimental: Tracer-level [^68Ga]KP46 and [^68Ga]Ga-acetate solutions (5–20 µL, 0.3–0.5 MBq) were added to a pre-equilibrated mixture (500 µL/500 µL) of octanol/water (for logP measurement) or octanol/PBS (for logD7.4 measurement). Samples were vortexed for two minutes in a Multi Vortex Mixer V-32 (Grant Bio). From each layer, a sample of 200 µL was taken and its radioactivity measured using a gamma counter.

[4] = set-up: method as in PMID 8687115; details: healthy mice, 2 weeks daily oral doses; cited from earlier work
[5] = molecular target: T1, human apo-transferrin (apo-Tf) (Homo sapiens, UniProt P02787); assay: Binding to apo-transferrin by size exclusion chromatography (PD MidiTrap G-25); assay type: in vitro ADME; details: incubated with apo-Tf in the presence of bicarbonate, sampled over 48 h
T1 construct: purchased Sigma Aldrich
Experimental: Solutions of human apo-transferrin (apo-Tf, 2 mg/mL) and human serum albumin (HSA, 50 mg/mL) (both purchased from Sigma Aldrich) were dissolved in aqueous NaHCO3 (5 mM, pH = 8) and PBS (pH = 7.4), respectively. An amount of 1 MBq of tracer-level [^68Ga]KP46 (13–20 µL) or [^68Ga]gallium acetate (20–25 µL) was added to 1.2 mL of the apo-Tf solution and to a similar apo-Tf-free NaHCO3 solution (control). Similarly, [^68Ga]KP46 and [^68Ga]gallium acetate solutions were added to 1.5 mL PBS containing HSA or HSA-free PBS (control). The samples were incubated for 60 min at 37 °C (pH = 7–7.5). From each mixture, 0.5 mL was loaded into PD MidiTrap G-25 size exclusion chromatography cartridges that were preconditioned with 8 mL of NaHCO3 (5 mM) (for apo-Tf binding) or PBS (for HSA binding). Fractions (0.5 mL) were collected and counted with a Wallac gamma counter. Protein absorbance at 280 nm was measured using a Nanodrop spectrophotometer. To investigate the speciation of the Ga–KP46 complex in the presence of apo-Tf at later time points (up to 48 h), the experiment was repeated with ^67Ga.

[6] = Octanol extraction of serum, urine and gut contents after oral radiolabelled KP46 (speciation); assay type: in vivo, mice; details: oral, tracer level (group E), 24 h
Experimental: Serum and urine from the “tracer level” group (E) were subjected to octanol extraction 24 h postadministration to determine the fraction of ^67Ga that may have survived in the form of [^67Ga]KP46 after absorption from the gut.
Oral [^68/67Ga]KP46: The protocol for oral administration experiments reported here was devised on the basis of pilot experiments described in Supplementary Materials (Figure S12). For short-term (up to 4 h) studies with ^68Ga, awake (nonanaesthetised, to avoid suppressive effects of anaesthesia on digestive tract activity) mice that had been fasted for up to 14 h were given [^68Ga]KP46 (5–13 MBq) (group C, “tracer”, n = 3) or [^68Ga]KP46 and KP46 (5–8.5 MBq) (group D, “bulk”, n = 3) by oral gavage. The dose given orally to group D animals, prepared as described above, was 0.4 μmol in 400 μL, molar activity ca. 25 MBq/μmol. The mice were fasted for three hours before being anaesthetised and PET/CT scanned dynamically for one hour (see below for scanning protocol). After scanning, mice in both groups were culled by neck dislocation while still anaesthetised four hours post-oral administration for organ harvesting and gamma counting. Samples of blood, urine and contents of stomach, small intestine and large intestine (the organs/tissue with measurable activity; tumours were not included as they were insufficiently radioactive) from the mice in group C were used for octanol extraction (shake-flask method) to separate water-soluble (released) and lipid-soluble (intact KP46) ^68Ga. Serum samples were prepared by placing blood samples in a serum separator tube (brand VS367954, Fisher Scientific Ltd., Loughborough, UK) and centrifuging at 3000 rpm for 10 min. Serum (200–300 µL) and urine samples (150–180 µL, taken from the excised bladders) were directly added to Eppendorf tubes containing a pre-equilibrated mixture of octanol (500 µL) and water (500 µL). The tubes were vortexed for two minutes on a Multi Vortex Mixer V-32 (Grant Bio). After separation of layers, a sample of 400 µL from each layer was transferred to fresh Eppendorf tubes and analysed with a gamma counter. Stomach content (72–77 mg), small intestine content (35–88 mg), and large intestine content (86–100 mg) samples from each mouse were analysed similarly by adding them directly to Eppendorf tubes containing a pre-equilibrated mixture of octanol (500 µL) and water (500 µL) before vortexing and centrifuging at 10,000 rpm for 10 min at 4 °C. From each layer, 430 µL was transferred to fresh Eppendorf tubes and analysed with a gamma counter; the solid residues were also counted. Tissues from mice in group D were used after radioactive decay for measurements of nonradioactive ^69Ga content.

[7] = SPECT imaging and ex vivo biodistribution 24 h and 48 h after oral [67Ga]KP46, tracer (group E) and bulk (group F); assay type: in vivo, mice; details: n = 4
Experimental: The tracer-level samples for oral administration were prepared in the same manner but with 20 μL of KP46-free DMSO in place of the KP46 solution in DMSO.
All animal experiments were performed in accordance with the Animals (Scientific Procedures) Act, 1986, with protocols approved by the Animal Welfare and Ethical Review Body for King’s College London under project and personal licences approved by the UK Home Office. Tumour xenograft studies were performed on female NSG mice or female athymic nude mice after injecting them subcutaneously in the right shoulder with 2.5 × 10^6 A375 cells in 100 µL of PBS. All in vivo studies were conducted between 14 and 24 days after inoculation, with tumour volumes between 100 mm^3 and 580 mm^3 (see Supplementary Materials, Figure S11).
For long-term (up to 48 h) studies, a similar protocol was followed, but SPECT imaging using ^67Ga was repeated at intervals up to 48 h instead of PET imaging up to only 4 h postadministration. Athymic nude nu/nu mice bearing A375 xenografts were fasted for 7–14 h and divided in two groups: E (n = 4) and F (n = 4). Awake (nonanaesthetised) mice were orally administered with [^67Ga]KP46 (2–11 MBq, “tracer”, group E) or with [^67Ga]KP46 and KP46 (1–11 MBq, “bulk”, group F, given 0.4 μmol KP46 with molar activity ca. 15 MBq/μmol) and fasted for three hours. Mice in both groups were then anaesthetised and SPECT/CT scanned (see scanning protocol below) for one hour. Mice were then allowed to recover and feed. At 24 h postadministration, mice were reanaesthetised and rescanned, then group E mice were culled while still anaesthetised, and tissues were harvested for ex vivo gamma counting.
PET/CT images were acquired with a nanoScan® PET/CT (Mediso Medical Imaging Systems, Budapest, Hungary) scanner operating in list mode using a 400–600 keV energy window and a coincidence window of 1:3. CT scans were acquired for anatomical reference and attenuation correction (55 keV X-ray, exposure time 1000 ms, and 360 projections and pitch 1). PET projection data were reconstructed using the Tera-tomo® software package provided with the scanner —a Monte Carlo-based fully 3D iterative algorithm with four iterations, six subsets, and 0.4 mm isotropic voxel size; corrections for attenuation, scatter, and dead-time were enabled. The data were then visualised and quantified using VivoQuant^© v.2.50 (InviCro, Boston, MA, USA) software. SPECT/CT imaging was performed on a NanoSPECT/CT Silver Upgrade scanner (Mediso; 4 heads, 4 × 9 1.0 mm multipinhole collimators) in helical scanning mode using energy windows centred around 93.20 ± 20% keV (primary), 184.60 ± 20% keV (secondary), and 300.00 ± 20% keV (tertiary). […] Images were coregistered and analysed using VivoQuant v2.50 (InviCro, Needham, MA, USA).

[8] = single oral administration with bulk gallium chloride (100 nmol), after five days; cited from earlier work

T1 sequence (P02787 20-698): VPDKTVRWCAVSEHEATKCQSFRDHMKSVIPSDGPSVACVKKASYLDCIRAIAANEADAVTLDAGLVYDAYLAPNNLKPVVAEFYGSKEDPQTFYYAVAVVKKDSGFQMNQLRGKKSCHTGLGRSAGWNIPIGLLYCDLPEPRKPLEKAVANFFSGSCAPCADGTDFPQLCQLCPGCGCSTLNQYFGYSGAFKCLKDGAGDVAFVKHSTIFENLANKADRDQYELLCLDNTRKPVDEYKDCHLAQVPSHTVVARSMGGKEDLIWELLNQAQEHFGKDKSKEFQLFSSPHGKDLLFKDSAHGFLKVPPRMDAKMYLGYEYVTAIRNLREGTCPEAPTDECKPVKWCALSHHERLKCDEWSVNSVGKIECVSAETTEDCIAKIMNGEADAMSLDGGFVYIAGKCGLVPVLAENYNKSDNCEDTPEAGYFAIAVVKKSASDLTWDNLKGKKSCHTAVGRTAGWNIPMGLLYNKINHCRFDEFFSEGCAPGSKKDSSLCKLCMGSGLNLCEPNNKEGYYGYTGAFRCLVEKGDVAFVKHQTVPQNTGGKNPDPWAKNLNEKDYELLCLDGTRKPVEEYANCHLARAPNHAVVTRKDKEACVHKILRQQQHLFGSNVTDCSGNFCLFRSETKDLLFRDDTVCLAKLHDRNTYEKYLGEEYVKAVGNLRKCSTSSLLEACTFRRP

SMILES: [Ga+3].[O-]c1cccc2cccnc12.[O-]c1cccc2cccnc12.[O-]c1cccc2cccnc12 [KP46, tris(8-quinolinolato)gallium (III)]
- logP(octanol/water) [1]: 0.88
- 69Ga delivered to tumour by ICP-MS [2]: 0.17 ± 0.1 %ID/g
- 69Ga in large intestine by ICP-MS [2]: 23.7 ± 9.2 %ID/g
- logP(octanol/water) [3]: 2.33 ± 0.28
- accumulation of gallium in liver [4]: 0.08 ± 0.04 %ID/g

SMILES: [67Ga+3].[O-]c1cccc2cccnc12.[O-]c1cccc2cccnc12.[O-]c1cccc2cccnc12 [[^67Ga]KP46]
- binding of 67Ga to apo-Tf [5]: very minor binding
- serum radioactivity extracted into octanol phase [6]: Less than 6%
- urine activity extracted into octanol phase [6]: less than 3%
- uptake in bone, ex vivo ([7]; bulk level (group F), 48 h): 2.55 ± 1.82 %ID/g
- uptake in liver, ex vivo ([7]; bulk level (group F), 48 h): 1.34 ± 1.01 %ID/g
- uptake in tumour, ex vivo ([7]; bulk level (group F), 48 h): 1.57 ± 0.48 %ID/g
- activity in faeces, ex vivo ([7]; tracer level (group E), 24 h): 3.0 ± 2.9 %ID/g

SMILES: O=C([O-])CC(O)(CC(=O)[O-])C(=O)[O-].[67Ga+3] [[^67Ga]gallium citrate]
- original measured activity remaining in the mice [8]: 0.3 ± 0.08%
